# According to patent US9365522B2, “Pyrazole amide derivative” (AMGEN INC., priority 2015, dated 2016):
# Molecular target: T1, ligand binding domain of human ROR gamma (Homo sapiens, UniProt P51449)
# T1 construct: NM_001001523; expressed in transfected cells; host or cells: HEK293T
# T1 sequence (P51449 247-497 isoform P51449-2): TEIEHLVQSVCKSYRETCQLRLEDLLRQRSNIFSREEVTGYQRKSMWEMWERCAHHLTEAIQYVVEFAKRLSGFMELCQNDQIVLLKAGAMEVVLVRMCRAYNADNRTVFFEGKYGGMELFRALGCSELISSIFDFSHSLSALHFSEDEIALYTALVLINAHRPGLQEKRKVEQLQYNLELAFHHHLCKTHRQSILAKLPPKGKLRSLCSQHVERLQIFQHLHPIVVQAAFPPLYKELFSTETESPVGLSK
# Assay: ROR gamma reporter gene assay (GAL4-RORγ LBD luciferase, Dual-Glo)
# Format: cell-based
# Conditions: HEK293T cells transfected with pM-ROR gamma, 8 concentrations 3.5 nM to 10.5 μM, 24 h incubation; read-out: result (pIC50, inhibition of RORγ transcriptional activity) (converted)
# Method in brief: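 Inhibition of RORγ-driven transcription was measured in HEK293T cells expressing a GAL4 fusion of the human RORγ LBD (aa 247-497), with renilla luciferase as internal control. Cells in 10% charcoal-stripped serum received compound (3.5 nM–10.5 μM) for 24 h.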
row,Compound,IC50 [pM]
1,"CC(CN(Cc1ccc(F)cc1)C(=O)c1cnn([C@H]2CC[C@H](C(=O)O)CC2)c1C(F)(F)F)c1c(Cl)cccc1Cl (stereo partly drawn) [Example 100, trans-4-(4-(2-(2,6-dichlorophenyl)propyl-((4-fluorophenyl)methyl)carbamoyl)-5-(trifluoromethyl)pyrazol-1-yl)cyclohexane-1-carboxylic acid]",234000
2,"C[C@]1(C(=O)O)CC[C@H](n2ncc(C(=O)N(CC(=O)c3c(Cl)cncc3Cl)Cc3cc(F)cc(F)c3)c2C(F)F)CC1 [Example 178, trans-4-(4-((2-(3,5-dichloropyridin-4-yl)-2-oxoethyl)-((3,5-difluorophenyl)methyl)carbamoyl)-5-(difluoromethyl)pyrazol-1-yl)-1-methylcyclohexane-1-carboxylic acid]",4.37e+06
3,"O=C(CN(Cc1cc(F)cc(F)c1)C(=O)c1cnn([C@H]2CC[C@H](C(=O)O)CC2)c1C(F)(F)F)c1ccc(F)cc1Cl [Example 61, trans-4-(4-((2-(2-chloro-4-fluorophenyl)-2-oxoethyl)(3,5-difluorobenzyl)carbamoyl)-5-(trifluoromethyl)-1H-pyrazol-1-yl)cyclohexanecarboxylic acid]",200000
4,"CC(COC(C)(C)C)N(CC(=O)c1c(Cl)cncc1Cl)C(=O)c1cnn([C@H]2CC[C@](C)(C(=O)O)CC2)c1C(F)(F)F (stereo partly drawn) [Example 332, trans-4-(4-((2-(3,5-dichloropyridin-4-yl)-2-oxoethyl)-(1-((2-methylpropan-2-yl)oxy)propan-2-yl)carbamoyl)-5-(trifluoromethyl)pyrazol-1-yl)-1-methylcyclohexane-1-carboxylic acid]",513000
5,"CC(C)CC1(N(CC(=O)c2c(Cl)cncc2Cl)C(=O)c2cnn([C@H]3CC[C@](C)(C(=O)O)CC3)c2C(F)(F)F)CC1 [Example 319, trans-4-(4-((2-(3,5-dichloropyridin-4-yl)-2-oxoethyl)-(1-(2-methylpropyl)cyclopropyl)carbamoyl)-5-(trifluoromethyl)pyrazol-1-yl)-1-methylcyclohexane-1-carboxylic acid]",141000
6,"CC1(C)CCC(N(CC(=O)c2c(Cl)cncc2Cl)C(=O)c2cnn([C@H]3CC[C@](C)(C(=O)O)CC3)c2C(F)(F)F)CO1 (stereo partly drawn) [Example 323, trans-4-(4-((2(3,5-dichloropyridin-4-yl)-2-oxoethyl)-(6,6-dimethyloxan-3-yl)carbamoyl)-5-(trifluorornethyl)pyrazol-1-yl)-1-methylcyclohexane-1-carboxylic acid]",380000
7,"O=C(CN(CC1(F)CCCC1)C(=O)c1cnn([C@H]2CC[C@H](C(=O)O)CC2)c1C(F)(F)F)c1c(Cl)cncc1Cl [Example 194, trans-4-(4-((2-(3,5-dichloropyridin-4-yl)-2-oxoethyl)-((1-fluorocyclopentyl)methyl)carbamoyl)-5-(trifluoromethyl)pyrazol-1-yl)cyclohexane-1-carboxylic acid]",14100
8,"COc1cccc(Cl)c1C(=O)CN(C(=O)c1cnn([C@H]2CC[C@](C)(C(=O)O)CC2)c1C(F)(F)F)C1CCC(C)(C)CC1 [Example 255, trans-4-(4-((2-(2-chloro-6-methoxyphenyl)-2-oxoethyl)-(4,4-dimethylcyclohexyl)carbamoyl)-5-(trifluoromethyl)pyrazol-1-yl)-1-methylcyclohexane-1-carboxylic acid]",55000
9,"CC1(O)CCC(CN(CC(=O)c2c(Cl)cncc2Cl)C(=O)c2cnn([C@H]3CC[C@H](C(=O)O)CC3)c2C(F)(F)F)CC1 (stereo partly drawn) [Example 19, trans-4-(4-((2-(3,5-dichloropyridin-4-yl)-2-oxoethyl)((4-hydroxy-4-methylcyclohexyl)methyl)carbamoyl)-5-(trifluoromethyl)-1H-pyrazol-1-yl)cyclohexanecarboxylic acid]",> 1e+07
10,"CC1(C)[C@@H]2C[C@H](N(CC(=O)c3c(Cl)cc(Cl)cc3Cl)C(=O)c3cnn(C45CCC(C(=O)O)(CC4)CC5)c3C(F)(F)F)C[C@@H]21 [Example 241, 4-(4-(((1R,3r,5S)-6,6-dimethyl-3-bicyclo[3.1.0]hexanyl)-(2-oxo-2-(2,4,6-trichlorophenyl)ethyl)carbamoyl)-5-(trifluoromethyl)pyrazol-1-yl)bicyclo(2.2.2)octane-1-carboxylic acid]",5130
11,"CC1(C)[C@@H]2C[C@H](N(C[C@@H](O)c3sccc3Cl)C(=O)c3cnn([C@H]4CC[C@](C)(C(=O)O)CC4)c3C(F)(F)F)C[C@@H]21 [Example 397, trans-4-(4-((2-(3-chlorothiophen-2-yl)-2-hydroxyethyl)((1R,3r,5S)-6,6-dimethylbicyclo[3.1.0]hexan-3-yl)carbamoyl)-5-(trifluoromethyl)-1H-pyrazol-1-yl)-1-methylcyclohexanecarboxylic acid]",61700
12,"O=C(CN(Cc1ccc(F)cc1)C(=O)c1cnn([C@H]2CC[C@H](C(=O)O)CC2)c1CC(F)(F)F)c1c(Cl)cncc1Cl [Example 228, trans-4-(4-((2-(3,5-dichloropyridin-4-yl)-2-oxoethyl)-((4-fluorophenyl)methyl)carbamoyl)-5-(2,2,2-trifluoroethyl)pyrazol-1-yl)cyclohexane-1-carboxylic acid]",195000
13,"CN1C(C)(C)CC(N(CC(=O)c2c(Cl)cncc2Cl)C(=O)c2cnn([C@H]3CC[C@](C)(C(=O)O)CC3)c2C(F)(F)F)CC1(C)C [Example 311, trans-4-(4-((2-(3,5-dichloropyridin-4-yl)-2-oxoethyl)-(1,2,2,6,6-pentamethylpiperidin-4-yl)carbamoyl)-5-(trifluoromethyl)pyrazol-1-yl)-1-methylcyclohexane-1-carboxylic acid]",> 1.05e+07
14,"O=C(CN(Cc1ccc(F)cc1)C(=O)c1cnn([C@H]2CC[C@@](O)(C(=O)O)CC2)c1C(F)(F)F)c1c(Cl)cncc1Cl [Example 106, trans-4-(4-((2-(3,5-dichloropyridin-4-yl)-2-oxoethyl)-((4-fluorophenyl)methyl)carbamoyl)-5-(trifluoromethyl)pyrazol-1-yl)-1-hydroxycyclohexane-1-carboxylic acid]",380000

# Now from value to molecule:
row,IC50 [pM],Compound
1,16200,"C[C@]1(C(=O)O)CC[C@H](n2ncc(C(=O)N(CC(=O)c3c(Cl)cccc3C(F)(F)F)CC3(F)CCCC3)c2C(F)(F)F)CC1 [Example 270, trans-4-(4-((2-(2-chloro-6-(trifluoromethyl)phenyl)-2-oxoethyl)-((1-fluorocyclopentyl)methyl)carbamoyl)-5-(trifluoromethyl)pyrazol-1-yl)-1-methylcyclohexane-1-carboxylic acid]"
2,102000,"O=C(CN(Cc1ccoc1)C(=O)c1cnn([C@H]2CC[C@H](C(=O)O)CC2)c1C(F)(F)F)c1c(Cl)cncc1Cl [Example 47, trans-4-(4-((2-(3,5-dichloropyridin-4-yl)-2-oxoethyl)(furan-3-ylmethyl)carbamoyl)-5-(trifluoromethyl)-1H-pyrazol-1-yl)cyclohexanecarboxylic acid]"
3,224000,"CC1(C)[C@@H]2C[C@H](N(CC(O)c3ccsc3Cl)C(=O)c3cnn([C@H]4CC[C@](C)(C(=O)O)CC4)c3C(F)(F)F)C[C@@H]21 (stereo partly drawn) [Example 411, trans-4-(4-((2-(2-chlorothiophen-3-yl)-2-hydroxyethyl)((1R,3r,5S)-6,6-dimethylbicyclo[3.1.0]hexan-3-yl)carbamoyl)-5-(trifluoromethyl)-1H-pyrazol-1-y1)-1-methylcyclohexanecarboxylic acid]"
4,3390,"Cc1cc(Cl)c(C(=O)CN(CC23CCC(C)(CC2)O3)C(=O)c2cnn([C@H]3CC[C@](C)(C(=O)O)CC3)c2C(F)(F)F)c(Cl)c1 [Example 226, trans-4-(4-((2-(2,6-dichloro-4-methylphenyl)-2-oxoethyl)-((1-methyl-7-oxabicyclo[2.2.1]heptan-4-yl)methyl)carbamoyl)-5-(trifluoromethyl)pyrazol-1-yl)-1-methylcyclohexane-1-carboxylic acid]"
5,52500,"O=C(CN(Cc1cc(F)cc(F)c1)C(=O)c1cnn([C@H]2CC[C@H](C(=O)O)CC2)c1C(F)(F)F)c1c(F)cc(F)cc1Cl [Example 179, trans-4-(4-((2-(2-chloro-4,6-difluorophenyl)-2-oxoethyl)-((3,5-difluorophenyl)methyl)carbamoyl)-5-(trifluoromethyl)pyrazol-1-yl)cyclohexane-1-carboxylic acid]"
6,324000,"COc1cccc(Cl)c1C(=O)CN(CC#CC(C)(C)C)C(=O)c1cnn([C@H]2CC[C@](C)(C(=O)O)CC2)c1C(F)(F)F [Example 214, trans-4-(4-((2-(2-chloro-6-methoxyphenyl)-2-oxoethyl)-(4,4-dimethylpent-2-ynyl)carbamoyl)-5-(trifluoromethyl)pyrazol-1-yl)-1-methylcyclohexane-1-carboxylic acid]"
7,60300,"CC(C)(C)OCCN(CC(=O)c1c(Cl)cc(C(F)(F)F)cc1Cl)C(=O)c1cnn([C@H]2CC[C@](C)(C(=O)O)CC2)c1C(F)(F)F [Example 149, trans-4-(4-((2-(2,6-dichloro-4-(trifluoromethyl)phenyl)-2-oxoethyl)-(2-((2-methylpropan-2-yl)oxy)ethyl)carbamoyl)-5-(trifluoromethyl)pyrazol-1-yl)-1-methylcyclohexane-1-carboxylic acid]"
